Source: patent publication US20240270821A1, “GIP/GLP1/GCG TRI-RECEPTOR AGONISTS AND USES THEREOF” (priority 2023, published 2024)
Where two headings read alike, the source gives them in different places. Starred links: 1 amine or outer side, 2 acyl side, 3 side chain; linkers in the order of their positions; H or OH if unused. Non-standard residues stand in square brackets, D forms with d. Groups on a side chain read outwards from the residue. *: point of attachment. C20 diacid = O=C(O)CCCCCCCCCCCCCCCCCCC(=O)*; C18 diacid = O=C(O)CCCCCCCCCCCCCCCCC(=O)*; γGlu = O=C(O)[C@H](CCC(=O)[*:2])N[*:1]; αMe4Pal = C[C@](N)(Cc1ccncc1)C(=O)O; αMeY = C[C@](N)(Cc1ccc(O)cc1)C(=O)O; Hyp = O=C(O)[C@@H]1C[C@@H](O)CN1; 4Pal = N[C@@H](Cc1ccncc1)C(=O)O; αMeL = CC(C)C[C@](C)(N)C(=O)O; Orn = NCCC[C@H](N)C(=O)O; AEEA = NCCOCCOCC(=O)O; Aib = CC(C)(N)C(=O)O

Assays:
Format in all cases: cell-based
hGIPR [1] = target: T1, hGIPR (Homo sapiens, UniProt P48546); test: Functional cAMP activity in the presence of 1% HSA; settings: read-out: cAMP Rel EC50, hGIPR
T1 sequence (P48546 22-466): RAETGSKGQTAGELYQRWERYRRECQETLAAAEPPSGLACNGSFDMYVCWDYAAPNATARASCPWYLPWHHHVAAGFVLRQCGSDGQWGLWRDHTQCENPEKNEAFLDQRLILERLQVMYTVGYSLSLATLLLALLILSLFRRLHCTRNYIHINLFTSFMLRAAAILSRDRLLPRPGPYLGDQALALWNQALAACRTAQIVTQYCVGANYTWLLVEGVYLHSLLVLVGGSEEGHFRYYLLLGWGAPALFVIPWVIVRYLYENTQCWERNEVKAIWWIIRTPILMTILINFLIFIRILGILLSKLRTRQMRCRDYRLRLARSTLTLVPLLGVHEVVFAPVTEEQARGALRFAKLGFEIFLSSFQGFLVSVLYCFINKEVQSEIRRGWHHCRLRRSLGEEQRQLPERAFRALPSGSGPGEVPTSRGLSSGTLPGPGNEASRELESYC

human GcgR = human GcgR (Homo sapiens, UniProt P47871); test: Functional cAMP activity in the presence of 1% HSA; settings: read-out: cAMP Rel EC50, hGcgR
Sequence of human GcgR (P47871 26-477): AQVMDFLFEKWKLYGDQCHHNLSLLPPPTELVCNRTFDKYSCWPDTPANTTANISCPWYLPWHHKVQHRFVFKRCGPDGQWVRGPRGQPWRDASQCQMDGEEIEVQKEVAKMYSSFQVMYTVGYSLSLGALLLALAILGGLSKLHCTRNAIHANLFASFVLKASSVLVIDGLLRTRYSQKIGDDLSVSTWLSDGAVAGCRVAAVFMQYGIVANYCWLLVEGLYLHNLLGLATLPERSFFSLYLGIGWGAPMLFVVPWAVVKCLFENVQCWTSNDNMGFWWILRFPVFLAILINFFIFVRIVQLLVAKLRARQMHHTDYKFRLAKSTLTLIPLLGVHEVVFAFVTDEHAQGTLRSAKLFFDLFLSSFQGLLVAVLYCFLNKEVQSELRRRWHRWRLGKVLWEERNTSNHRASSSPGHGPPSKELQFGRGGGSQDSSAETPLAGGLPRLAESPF

hGIPR [2] = target: T1, hGIPR; test: Functional cAMP activation in the presence of 0.1% casein (no HSA); settings: read-out: Relative cAMP EC50, hGIPR;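 on Relative cAMP EC50, hGIPR: intracellular cAMP rise after 30 min at 37 °C read by HTRF against a standard curve, scaled between buffer alone (0%) and top control ligand concentration (100%), four-parameter fit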;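 on Relative cAMP EC50, hGLP-1R: intracellular cAMP rise after 30 min at 37 °C read by HTRF, normalized between buffer only (0%) and maximal control ligand (100%), four-parameter variable-slope fit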
hGLP-1R [3] = target: T2, hGLP-1R (Homo sapiens, UniProt P43220); test: Functional cAMP activity in the presence of 1% HSA; settings: read-out: cAMP Rel EC50, hGLP-1R
T2 sequence (P43220 24-463): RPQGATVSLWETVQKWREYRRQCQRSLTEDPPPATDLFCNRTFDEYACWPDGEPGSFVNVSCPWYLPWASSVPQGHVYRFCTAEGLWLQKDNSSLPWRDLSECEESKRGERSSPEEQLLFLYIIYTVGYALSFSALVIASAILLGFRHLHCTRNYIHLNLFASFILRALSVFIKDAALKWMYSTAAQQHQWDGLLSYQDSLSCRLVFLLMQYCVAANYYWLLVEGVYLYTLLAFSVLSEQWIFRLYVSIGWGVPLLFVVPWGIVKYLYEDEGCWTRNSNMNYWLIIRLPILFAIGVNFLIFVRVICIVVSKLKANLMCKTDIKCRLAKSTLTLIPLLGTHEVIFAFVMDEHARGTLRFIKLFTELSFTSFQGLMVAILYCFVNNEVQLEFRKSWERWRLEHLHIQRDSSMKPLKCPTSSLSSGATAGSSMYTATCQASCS

hGcgR = hGcgR (Homo sapiens, UniProt P47871); test: Functional cAMP activation in the presence of 0.1% casein (no HSA); settings: read-out: Relative cAMP EC50, hGcgR;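 further: intracellular cAMP rise after 30 min at 37 °C, read by HTRF against a cAMP standard curve, scaled from buffer only (0%) to maximal control ligand response (100%)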
Sequence of hGcgR (P47871 26-477): as the sequence (P47871 26-477) above

hGLP-1R [4] = target: T2, hGLP-1R; test: as above; settings: read-out: Relative cAMP EC50, hGLP-1R
[5] = in the presence of 0.1% casein (no HSA), geometric mean

| Substance | EC50 (hGIPR [1]) [nM] | EC50 (human GcgR) [nM] | EC50 (hGIPR [2]; [5]) [nM] | EC50 (hGLP-1R [3]) [nM] | EC50 (hGcgR; [5]) [nM] | EC50 (hGLP-1R [4]; [5]) [nM] | EC50 (hGIPR [2]) [nM] | EC50 (hGcgR) [nM] | EC50 (hGLP-1R [4]) [nM] |
| --- | --- | --- | --- | --- | --- | --- | --- | --- | --- |
| H-Y[Aib]QGTFTSDFS[Orn][αMeL]LDKK([AEEA-γGlu-C18 diacid])AQ[Aib]AFIEYLLEGGPSSGAPP[Hyp]GGS-NH2 [Example 237] | 30.9 | 441 | 0.228 | 291 | 3.77 | 3.4 | – | – | – |
| H-Y[Aib]QGTFTSDFS[Orn][αMeL]LDKK([AEEA-γGlu-C18 diacid])AQ[Aib]AFIEYLLEGGPSSGAP[Hyp]PGGS-NH2 [Example 236] | 24.8 | 309 | 0.309 | 261 | 2.23 | 3.33 | – | – | – |
| H-Y[Aib]QGTFTSDFS[Orn][αMeL]LDKK([AEEA-γGlu-C18 diacid])AQ[Aib]AFIEYLLEGGPSSGEPPPSGS-NH2 [Example 131] | 91.8 | 976 | 0.416 | 984 | 2.64 | 5.51 | – | – | – |
| H-Y[Aib]QGTFTSDFS[Orn][αMeL]LDKK([AEEA-γGlu-C18 diacid])AQ[Aib]AFIEYLLEGG[Hyp]SSGAPPPGGS-NH2 [Example 234] | 31.1 | 702 | 0.322 | 604 | 7.87 | 4.72 | – | – | – |
| H-Y[Aib]QGTFTSDFS[Orn][αMeL]LDKK([AEEA-γGlu-C18 diacid])AQ[Aib]AFIEYLLE[Aib]GESSGAPPPSGS-NH2 [Example 240] | 10.4 | 521 | 0.214 | 396 | 2.02 | 3.62 | – | – | – |
| H-Y[Aib]QGTFTSDFS[Orn][αMeL]LDKK([AEEA-γGlu-C18 diacid])AQ[Aib]AFIEYLLE[Aib]GHSSGAPPPSGE-NH2 [Example 247] | 12.9 | 443 | 0.0794 | 291 | 1.76 | 2.8 | – | – | – |
| H-Y[Aib]QGTFTSDFS[Orn][αMeL]LDKK([AEEA-γGlu-C18 diacid])AQ[Aib]AFIEYLLE[dA]GHSSGAPPPSGE-NH2 [Example 207] | 15.2 | 770 | 0.321 | 225 | 4.24 | 4.36 | – | – | – |
| H-Y[Aib]QGTFTSDFS[Orn][αMeL]LDKK([AEEA-γGlu-C18 diacid])AQ[Aib]AFIE[4Pal]LLEGGPSSGAPPPGGS-NH2 [Example 496] | 60.8 | 1500 | – | 1480 | – | – | 0.387 | 8.25 | 9.69 |
| H-Y[Aib]QGTFTSDFS[Orn][αMeL]LDKK([AEEA-γGlu-C18 diacid])AQ[Aib]AFIE[αMeY]LIEGGPSSGAPPPSGS-NH2 [Example 839] | 21.9 | 1110 | 0.221 | 60.6 | 5.05 | 0.469 | – | – | – |
| H-Y[Aib]QGTFTSDFS[Orn][αMeL]LDKK([AEEA-γGlu-C18 diacid])AQ[Aib]QFIEYLLAGGPSSGAPPPEGS-NH2 [Example 96] | 49.3 | 2150 | 0.456 | 836 | 14.1 | 3.92 | – | – | – |
| H-Y[Aib]QGTFTSDFS[Orn][αMeL]LDKK([AEEA-γGlu-C18 diacid])AQ[αMe4Pal]AFIEYLIE[Aib]GPSSGAPPPSGS-NH2 [Example 811] | 25.8 | 175 | 0.14 | 246 | 0.724 | 1.48 | – | – | – |
| H-Y[Aib]QGTFTSDFS[Orn][αMeL]LDKK([AEEA-γGlu-C18 diacid])AQ[αMe4Pal]AFIE[αMeY]LIEGGPSSGAPPPSGS-NH2 [Example 845] | 23.3 | 203 | 0.178 | 89.1 | 0.626 | 0.161 | – | – | – |
| H-Y[Aib]QGTFTSDFS[Orn][αMeL]LDKK([AEEA-γGlu-C18 diacid])AQ[αMe4Pal]DFIEYLIE[Aib]GPSSGAPPPSGS-NH2 [Example 880] | 76.2 | 562 | 0.116 | 943 | 3.53 | 7.69 | – | – | – |
| H-Y[Aib]QGTFTSDFS[Orn][αMeL]LDKK([AEEA-γGlu-C18 diacid])AQ[αMe4Pal]EFIEYLIE[Aib]GPSSGAPPPSGS-NH2 [Example 879] | 20.1 | 329 | 0.169 | 591 | 2.16 | 4 | – | – | – |
| H-Y[Aib]QGTFTSDFS[Orn][αMeL]LDKK([AEEA-γGlu-C20 diacid])AQ[Aib]AFIEWLLAGGPSSGEPPPSGE-NH2 [Example 103] | 35.1 | 2590 | 0.2 | 482 | 10.5 | 3.27 | – | – | – |
| H-Y[Aib]QGTFTSDFS[Orn][αMeL]LDKK([AEEA-γGlu-C20 diacid])AQ[Aib]AFIEWLLEGGPSSGAPPPEGE-NH2 [Example 101] | 133 | 2810 | 0.436 | 1090 | 10 | 4.3 | – | – | – |
| H-Y[Aib]QGTFTSDFS[Orn][αMeL]LDKK([AEEA-γGlu-C20 diacid])AQ[Aib]AFIEYLLAGGPSSGAPPPSEG-NH2 [Example 60] | 33 | 1210 | 0.135 | 409 | 8.96 | 1.93 | – | – | – |
| H-Y[Aib]QGTFTSDFS[Orn][αMeL]LDKK([AEEA-γGlu-C20 diacid])AQ[Aib]AFIEYLLAGGPSSGAPPPSGD-NH2 [Example 81] | 50.2 | 1580 | 0.246 | 430 | 7.78 | 2.19 | – | – | – |
| H-Y[Aib]QGTFTSDFS[Orn][αMeL]LDKK([AEEA-γGlu-C20 diacid])AQ[Aib]AFIEYLLAGGPSSGAPPPSGE-NH2 [Example 82] | 87.8 | 1070 | 0.302 | 394 | 6.98 | 3.52 | – | – | – |
| H-Y[Aib]QGTFTSDFS[Orn][αMeL]LDKK([AEEA-γGlu-C20 diacid])AQ[Aib]AFIEYLLAGGPSSGAPPPSGS-NH2 [Example 76] | 45.5 | 2240 | 0.196 | 436 | 11.1 | 2.25 | – | – | – |
| H-Y[Aib]QGTFTSDFS[Orn][αMeL]LDKK([AEEA-γGlu-C20 diacid])AQ[Aib]AFIEYLLAGGPSSGAPPPSGSE-NH2 [Example 84] | 57.4 | 2280 | 0.21 | 701 | 8.48 | 1.61 | – | – | – |
| H-Y[Aib]QGTFTSDFS[Orn][αMeL]LDKK([AEEA-γGlu-C20 diacid])AQ[Aib]AFIEYLLAGGPSSGAPPPSGS[AEEA]-NH2 [Example 83] | 91.8 | 1270 | 0.185 | 653 | 10.2 | 2.85 | – | – | – |
| H-Y[Aib]QGTFTSDFS[Orn][αMeL]LDKK([AEEA-γGlu-C20 diacid])AQ[Aib]AFIEYLLAGGPSSGEPPPEGE-NH2 [Example 102] | 159 | 2710 | 0.587 | 1060 | 9.75 | 3.35 | – | – | – |
| H-Y[Aib]QGTFTSDFS[Orn][αMeL]LDKK([AEEA-γGlu-C20 diacid])AQ[Aib]AFIEYLLAGGPSSGEPPPSGS-NH2 [Example 92] | 62 | 2540 | 0.212 | 735 | 12 | 2.08 | – | – | – |
| H-Y[Aib]QGTFTSDFS[Orn][αMeL]LDKK([AEEA-γGlu-C20 diacid])AQ[Aib]AFIEYLLAGGTSSGEPPPSGE-NH2 [Example 106] | 91 | 2000 | 0.345 | 977 | 6.26 | 3.94 | – | – | – |
| H-Y[Aib]QGTFTSDFS[Orn][αMeL]LDKK([AEEA-γGlu-C20 diacid])AQ[Aib]AFIEYLLEGGPSSGEPPPSEG-NH2 [Example 59] | 166 | 2160 | 0.54 | 1370 | 6.57 | 4.8 | – | – | – |
| H-Y[Aib]QGTFTSDFS[Orn][αMeL]LDKK([AEEA-γGlu-C20 diacid])AQ[Aib]AFIEYLLE[Aib]GPSSGAPPPSEG-NH2 [Example 61] | 55.2 | 1310 | 0.122 | 704 | 3.57 | 2.05 | – | – | – |
| H-Y[Aib]QGTFTSDFS[Orn][αMeL]LDKK([AEEA-γGlu-C20 diacid])AQ[Aib]AFIEYLLE[Aib]GPSSGAPPPSGS-NH2 [Example 73] | 57.9 | 1530 | 0.114 | 810 | 4.58 | 2.44 | – | – | – |
